Paper PMC9093745, “Carbohydrate Metabolism in Bacteria: Alternative Specificities in ADP-Glucose Pyrophosphorylases Open Novel Metabolic Scenarios and Biotechnological Tools” (Frontiers in Microbiology, 2022)

What was measured:
Format in all cases: biochemical
[1] = biological target: T1, R. fascians ADP-Glc PPase (Rhodococcoides fascians, UniProt A0A143QED7); assay: activation of ADP-Glc synthesis, malachite green Pi release; settings: allosteric activator; Glc-1P and ATP as substrates, Mg2+, pH 8.0, 37°C
T1 construct: gene glgC; recombinant in E. coli BL21 (DE3), His-tagged, IMAC purified; actinobacterial enzyme is a GlgC tetramer
T1 sequence (A0A143QED7 1-404): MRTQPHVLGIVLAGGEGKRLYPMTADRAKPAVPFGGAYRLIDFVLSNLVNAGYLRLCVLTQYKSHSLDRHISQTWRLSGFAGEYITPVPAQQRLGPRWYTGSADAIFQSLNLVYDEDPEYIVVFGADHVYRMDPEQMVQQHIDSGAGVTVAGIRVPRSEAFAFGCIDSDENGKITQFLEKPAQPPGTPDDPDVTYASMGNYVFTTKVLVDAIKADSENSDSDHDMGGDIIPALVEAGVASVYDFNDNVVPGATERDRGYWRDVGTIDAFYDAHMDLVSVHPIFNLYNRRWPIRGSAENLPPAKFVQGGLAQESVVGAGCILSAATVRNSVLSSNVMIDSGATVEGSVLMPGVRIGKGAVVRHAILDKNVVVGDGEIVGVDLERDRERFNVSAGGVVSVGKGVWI

[2] = biological target: T2, A. tumefaciens ADP-Glc PPase (Agrobacterium tumefaciens, UniProt P39669); assay: saturation curve, malachite green Pi release coupled to pyrophosphatase; settings: ATP co-substrate, Mg2+, pH 8.0, 37°C
T2 construct: gene glgC; recombinant in E. coli; proteobacterial enzyme is a GlgC homotetramer
T2 sequence (P39669 1-420): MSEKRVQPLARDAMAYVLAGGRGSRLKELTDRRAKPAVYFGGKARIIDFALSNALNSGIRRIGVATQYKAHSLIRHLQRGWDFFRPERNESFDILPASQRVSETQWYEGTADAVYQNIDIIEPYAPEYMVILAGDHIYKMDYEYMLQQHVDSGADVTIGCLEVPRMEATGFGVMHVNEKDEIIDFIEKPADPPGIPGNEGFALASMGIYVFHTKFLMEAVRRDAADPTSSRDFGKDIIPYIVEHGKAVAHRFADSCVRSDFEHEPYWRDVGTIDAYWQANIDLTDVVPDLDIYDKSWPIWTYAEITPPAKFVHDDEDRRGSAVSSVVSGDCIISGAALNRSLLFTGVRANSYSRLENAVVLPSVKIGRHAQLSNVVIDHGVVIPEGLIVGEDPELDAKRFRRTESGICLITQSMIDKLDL

[3] = biological target: T2, A. tumefaciens ADP-Glc PPase; assay: effect on ADP-Glc synthesis, malachite green Pi release; settings: allosteric effector, lowers activity; Glc-1P and ATP as substrates, Mg2+, pH 8.0, 37°C
[4] = biological target: T3, R. albus ADP-Glc PPase GlgC/GlgD (Hominimerdicola alba, UniProt E9SED8); assay: activation of ADP-Glc synthesis, malachite green Pi release; settings: allosteric activator; Glc-1P and ATP as substrates, Mg2+, pH 8.0, 37°C
T3 construct: recombinant in E. coli, IMAC purified; heterotetramer; with Glucose-1-phosphate adenylyltransferase, GlgD subunit
T3 sequence (E9SED8 1-400): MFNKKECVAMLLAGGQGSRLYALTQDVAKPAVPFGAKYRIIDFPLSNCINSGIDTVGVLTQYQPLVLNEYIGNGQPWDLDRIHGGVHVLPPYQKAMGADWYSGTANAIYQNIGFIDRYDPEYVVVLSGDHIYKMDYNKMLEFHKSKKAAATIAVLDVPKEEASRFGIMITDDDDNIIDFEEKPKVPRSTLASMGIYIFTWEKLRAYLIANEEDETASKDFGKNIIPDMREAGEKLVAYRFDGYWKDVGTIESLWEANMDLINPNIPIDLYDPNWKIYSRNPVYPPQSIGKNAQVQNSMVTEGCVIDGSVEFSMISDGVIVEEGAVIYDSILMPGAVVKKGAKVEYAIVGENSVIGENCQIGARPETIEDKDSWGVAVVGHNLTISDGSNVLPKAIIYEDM
T3 sequence (E9SED9 1-371 partner): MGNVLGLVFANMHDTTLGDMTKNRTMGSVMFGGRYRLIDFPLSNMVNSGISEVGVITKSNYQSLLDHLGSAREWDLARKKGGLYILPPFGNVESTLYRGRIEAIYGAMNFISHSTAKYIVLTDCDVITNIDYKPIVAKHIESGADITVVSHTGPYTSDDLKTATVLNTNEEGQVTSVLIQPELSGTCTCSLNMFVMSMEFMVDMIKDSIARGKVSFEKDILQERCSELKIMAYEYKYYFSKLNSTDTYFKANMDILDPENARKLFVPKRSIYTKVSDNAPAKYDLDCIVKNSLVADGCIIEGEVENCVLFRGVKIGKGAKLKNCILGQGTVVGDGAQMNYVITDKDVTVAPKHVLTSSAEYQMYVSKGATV

[5] = biological target: T4, S. coelicolor ADP-Glc PPase (Streptomyces coelicolor, UniProt P72394); assay: activation curve, malachite green Pi release coupled to pyrophosphatase; settings: allosteric activator (4-fold); Glc-1P and ATP as substrates, Mg2+, pH 8.0, 37°C; read-out: A0.5
T4 construct: gene glgC; recombinant in E. coli BL21 (DE3), His-tagged, IMAC purified; actinobacterial enzyme is a GlgC tetramer
T4 sequence (P72394 1-399): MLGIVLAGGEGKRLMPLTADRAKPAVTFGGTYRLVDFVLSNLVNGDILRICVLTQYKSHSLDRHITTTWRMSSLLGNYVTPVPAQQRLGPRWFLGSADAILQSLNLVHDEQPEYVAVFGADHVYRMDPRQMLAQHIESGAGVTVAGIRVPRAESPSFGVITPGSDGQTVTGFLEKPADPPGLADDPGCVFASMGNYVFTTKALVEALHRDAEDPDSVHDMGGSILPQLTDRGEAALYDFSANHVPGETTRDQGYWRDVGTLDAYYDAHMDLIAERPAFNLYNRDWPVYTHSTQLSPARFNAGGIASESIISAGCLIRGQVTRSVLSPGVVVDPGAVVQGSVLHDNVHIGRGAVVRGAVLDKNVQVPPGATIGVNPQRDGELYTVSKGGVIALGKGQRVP

[6] = biological target: T5, R. albus ADP-Glc PPase GlgC (Hominimerdicola alba, UniProt E9SED8); assay: activation of ADP-Glc synthesis, malachite green Pi release; settings: allosteric activator; Glc-1P and ATP as substrates, Mg2+, pH 8.0, 37°C
T5 construct: recombinant in E. coli, IMAC purified; homotetramer
T5 sequence (E9SED8 1-400): T3 sequence (E9SED8 1-400)

[7] = biological target: T6, K. rhizophila ADP-Glc PPase (Kocuria rhizophila, UniProt B2GHR6); assay: activation curve, malachite green Pi release coupled to pyrophosphatase; settings: allosteric activator (Vmax 4-fold); Glc-1P and ATP as substrates, Mg2+, pH 8.0, 37°C; read-out: A0.5
T6 construct: gene glgC; recombinant in E. coli BL21 (DE3), His-tagged, IMAC purified; actinobacterial enzyme is a GlgC tetramer
T6 sequence (B2GHR6 1-414): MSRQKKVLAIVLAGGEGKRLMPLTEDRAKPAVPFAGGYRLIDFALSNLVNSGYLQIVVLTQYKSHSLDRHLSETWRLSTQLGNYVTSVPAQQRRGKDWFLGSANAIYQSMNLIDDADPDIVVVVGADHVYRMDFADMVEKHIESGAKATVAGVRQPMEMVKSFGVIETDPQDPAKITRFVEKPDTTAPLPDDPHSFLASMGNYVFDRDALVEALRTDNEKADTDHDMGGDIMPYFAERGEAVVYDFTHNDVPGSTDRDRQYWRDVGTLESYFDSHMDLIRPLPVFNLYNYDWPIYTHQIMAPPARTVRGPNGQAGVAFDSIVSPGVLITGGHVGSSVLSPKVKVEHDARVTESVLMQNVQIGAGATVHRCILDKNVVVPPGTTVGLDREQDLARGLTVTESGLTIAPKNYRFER

SMILES | fold activation [1] | Km [2] | % decrease of activity [3] | activation of ADP-Glc synthesis, malachite green Pi release [4] | EC50 [5] [µM] | activation of ADP-Glc synthesis, malachite green Pi release [6] | EC50 [7] [µM]
O=P(O)(O)OC[C@H]1OC(O)[C@H](O)[C@@H](O)[C@@H]1O (some centres unmarked) [Glc-6P] | ~ 8 fold | – | – | – | – | – | –
N[C@H]1[C@@H](OP(=O)(O)O)O[C@H](CO)[C@@H](O)[C@@H]1O [GlcN-1P] | – | The enzyme was active with GlcN-1P as a substrate | – | – | – | – | –
N[C@H]1C(O)O[C@H](COP(=O)(O)O)[C@@H](O)[C@@H]1O (some centres unmarked) [GlcN-6P] | ~ 8 fold | – | ~ 30% | both R. albus GlgC and GlgC/GlgD responded to GlcN-6P activation | 3550 ± 520 | both R. albus GlgC and GlgC/GlgD responded to GlcN-6P activation | 80
